Structures are written as SMILES. Where a name gives a salt, the structure may show the parent alone.

For experiment [1], the system named is NF-κB. As to the kind of experiment: 293-cell pNF-κB-luc reporter assay, TNF-α induced. The format is cell-based. The conditions noted are these: HEK293 cells, NF-κB driven luciferase expression, read-out: 293/NFkB-luc EC50. As for the experimental part: (§1) Inhibition of NF-κB in cells by the compound of Example 1. Two reporter cell assays were used to determine the ability of the compound of Example 1 to inhibit NE-KB driven transcription. The first assay was a 293-cell based assay with a stably integrated pNF-κB-luc reporter plasmid containing 3 NF-κB promoter elements. The second assay was a 293-cell based assay with a stably integrated pTRH1-NF-κB-dscGFP reporter containing 4 NF-κB promoter elements. Cells were treated with 0, 0.2, 1, 10, 20 and 40 μM of the compound of Example 1 for 2 hours then were induced with 20 ng/ml TNF-α for 18 hours. Following the induction, luminescence or fluorescence was quantified using a Beckman-Coulter 2300 plate reader. […] These values represent the median value generated from three independent experiments±the standard error. As a control, 0.5% DMSO treated and untreated cells were compared to verify that the Example 1 carrier had no effect on the expression of luciferase or in the readout of the assay. There was a slight decrease in the output from the assay in the DMSO treated population although it was not statistically significant. As a result of the controls, the decrease in activity in the drug treated samples was compared to the DMSO control sample.
On the technique in general: Reporter assays use an easily measured gene product as a stand-in for the process of interest.

The subject of experiment [2] is NF-κB. As to the kind of experiment: 293-cell pTRH1-NF-κB-dscGFP reporter assay, TNF-α induced. The format is cell-based. The conditions noted are these: NF-κB driven GFP expression, read-out: NF-kB/293/GFP EC50. As for the experimental part: as §1
Experiment [3] concerns IL-6 release from RAW264.7 cells. As to the kind of experiment: IL-6 release from LPS stimulated RAW264.7 cells. The format is cell-based, mouse. As for the experimental part:
Specifically, A and B show the effects of the compound of Example 1 on soluble PGE2 and Il-6 secretion from RAW264.7 cells stimulated by 1 μg/mL of LPS. The cells were treated with the indicated concentrations of the compound of Example 1 for 2 hours, and then LPS was added and incubation continued for 4 hours. […]

The next experiment concerns the target p65 (RelA) (Homo sapiens, UniProt Q04206). As to the kind of experiment: TransAM NF-κB Family DNA Binding ELISA, p65. The conditions noted are these: p65 binding IC50 (uM), binding to NF-κB sites. (An ELISA detects its analyte on a solid surface through an enzyme-linked reagent.)
The target of another experiment is T1, p50 (Homo sapiens, UniProt P19838).
T1 sequence (P19838 1-433 limits assumed): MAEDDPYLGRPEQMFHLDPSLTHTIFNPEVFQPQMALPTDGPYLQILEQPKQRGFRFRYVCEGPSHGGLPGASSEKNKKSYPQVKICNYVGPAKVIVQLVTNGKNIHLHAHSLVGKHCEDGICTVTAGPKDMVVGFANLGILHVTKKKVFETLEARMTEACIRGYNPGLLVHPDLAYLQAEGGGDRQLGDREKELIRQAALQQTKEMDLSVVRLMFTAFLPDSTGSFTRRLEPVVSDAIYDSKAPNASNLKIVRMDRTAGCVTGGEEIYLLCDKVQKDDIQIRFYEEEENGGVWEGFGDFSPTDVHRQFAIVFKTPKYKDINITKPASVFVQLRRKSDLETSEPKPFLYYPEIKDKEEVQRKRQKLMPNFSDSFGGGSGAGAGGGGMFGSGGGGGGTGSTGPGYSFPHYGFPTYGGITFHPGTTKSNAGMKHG
As to the kind of experiment: TransAM NF-κB Family DNA Binding ELISA, p50. The conditions noted are these: p50 binding IC50 (uM), cells without % sign.

Another experiment has as its target T2, p52 (Homo sapiens, UniProt Q00653).
T2 sequence (Q00653 1-454 limits assumed): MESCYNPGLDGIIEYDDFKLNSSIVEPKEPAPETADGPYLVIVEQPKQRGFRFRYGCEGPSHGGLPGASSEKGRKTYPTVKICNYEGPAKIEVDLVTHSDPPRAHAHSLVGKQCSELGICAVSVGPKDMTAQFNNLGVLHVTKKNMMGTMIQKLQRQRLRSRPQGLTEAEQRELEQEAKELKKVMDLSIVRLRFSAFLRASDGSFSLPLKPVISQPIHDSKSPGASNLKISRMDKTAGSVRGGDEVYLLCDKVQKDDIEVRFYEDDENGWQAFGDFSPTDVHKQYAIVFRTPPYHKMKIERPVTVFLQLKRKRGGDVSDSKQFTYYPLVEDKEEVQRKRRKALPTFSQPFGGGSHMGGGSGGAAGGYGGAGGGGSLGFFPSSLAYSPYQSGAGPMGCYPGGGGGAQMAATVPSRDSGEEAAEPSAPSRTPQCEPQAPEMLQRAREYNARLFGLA
As to the kind of experiment: TransAM NF-κB Family DNA Binding ELISA, p52. The conditions noted are these: for IC50: p52 binding IC50 (uM), cells without % sign.

A further experiment deals with T3, RelB (Homo sapiens, UniProt Q01201).
T3 sequence (Q01201 1-579): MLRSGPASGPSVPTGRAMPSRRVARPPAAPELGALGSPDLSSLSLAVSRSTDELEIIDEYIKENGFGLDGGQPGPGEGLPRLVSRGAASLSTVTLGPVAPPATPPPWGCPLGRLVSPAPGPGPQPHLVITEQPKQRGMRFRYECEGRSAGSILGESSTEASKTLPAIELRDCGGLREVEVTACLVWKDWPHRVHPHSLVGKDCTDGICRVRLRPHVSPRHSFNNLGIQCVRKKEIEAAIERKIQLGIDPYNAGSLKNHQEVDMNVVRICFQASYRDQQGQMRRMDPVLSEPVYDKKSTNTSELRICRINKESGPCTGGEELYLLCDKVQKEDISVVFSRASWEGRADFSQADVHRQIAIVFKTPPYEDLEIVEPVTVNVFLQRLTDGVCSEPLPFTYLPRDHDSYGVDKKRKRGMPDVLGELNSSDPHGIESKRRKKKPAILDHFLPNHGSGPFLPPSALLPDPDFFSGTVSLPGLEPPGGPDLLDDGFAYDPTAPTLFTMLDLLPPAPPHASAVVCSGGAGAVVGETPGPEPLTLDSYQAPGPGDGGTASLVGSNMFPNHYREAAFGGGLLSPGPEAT
T3 sequence (Q00653 1-454 partner limits assumed): T2 sequence (Q00653 1-454 limits assumed)
The experiment in a line: TransAM NF-κB Family DNA Binding ELISA, RelB. The conditions noted are these: at 5 uM.

In another experiment the target is T4, c-Rel (Homo sapiens, UniProt Q04864).
T4 sequence (Q04864 2-619 limits assumed): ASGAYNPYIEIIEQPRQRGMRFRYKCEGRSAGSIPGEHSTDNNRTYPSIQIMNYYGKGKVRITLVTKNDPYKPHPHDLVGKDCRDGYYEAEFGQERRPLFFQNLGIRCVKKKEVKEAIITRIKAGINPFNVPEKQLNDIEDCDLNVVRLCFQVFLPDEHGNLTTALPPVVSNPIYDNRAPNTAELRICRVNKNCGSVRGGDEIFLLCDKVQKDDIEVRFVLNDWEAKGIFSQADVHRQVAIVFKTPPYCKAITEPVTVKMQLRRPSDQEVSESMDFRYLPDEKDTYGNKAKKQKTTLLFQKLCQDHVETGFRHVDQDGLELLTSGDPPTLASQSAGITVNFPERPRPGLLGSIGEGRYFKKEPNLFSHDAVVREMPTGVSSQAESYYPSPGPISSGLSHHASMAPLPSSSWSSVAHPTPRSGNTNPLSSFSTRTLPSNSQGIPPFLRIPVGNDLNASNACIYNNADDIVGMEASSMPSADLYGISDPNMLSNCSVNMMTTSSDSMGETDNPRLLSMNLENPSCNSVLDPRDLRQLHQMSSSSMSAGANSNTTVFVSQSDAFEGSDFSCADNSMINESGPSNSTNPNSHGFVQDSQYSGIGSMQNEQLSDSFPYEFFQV
The experiment in a line: TransAM NF-κB Family DNA Binding ELISA, c-Rel. The conditions noted are these: at 5 uM.

Setting [4] is: Homo sapiens, HEK293, HEK293 cells.
Where [5] appears, read: Mus musculus, RAW264.7, RAW 264.7 cells.
The mark [6] stands for this setting: RAW 264.7 cells, trifluoroacetate.

Sequence of p65 (RelA) (Q04206 whole entry): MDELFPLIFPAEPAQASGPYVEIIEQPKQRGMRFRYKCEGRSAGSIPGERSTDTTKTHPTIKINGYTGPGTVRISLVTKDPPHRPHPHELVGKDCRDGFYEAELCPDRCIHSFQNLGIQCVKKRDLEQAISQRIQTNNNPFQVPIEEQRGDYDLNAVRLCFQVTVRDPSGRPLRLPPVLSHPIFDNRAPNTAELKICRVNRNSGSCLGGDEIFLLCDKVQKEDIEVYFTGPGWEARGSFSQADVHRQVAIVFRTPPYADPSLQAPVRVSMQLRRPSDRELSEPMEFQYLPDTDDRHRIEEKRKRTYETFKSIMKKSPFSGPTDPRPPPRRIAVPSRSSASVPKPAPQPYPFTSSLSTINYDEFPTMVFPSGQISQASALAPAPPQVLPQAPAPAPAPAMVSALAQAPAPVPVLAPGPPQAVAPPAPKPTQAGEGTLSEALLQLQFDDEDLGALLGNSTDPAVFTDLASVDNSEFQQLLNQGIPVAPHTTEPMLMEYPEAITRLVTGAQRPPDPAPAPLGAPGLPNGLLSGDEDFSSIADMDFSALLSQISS
Procedure for RelB: (§2) Treated samples were then transferred to 30 μL Complete Binding Buffer (with DTT) in microplate wells pre-coated with the NF-κB consensus oligonucleotide. […] The plate was incubated for 1 hour at room temperature with gentle shaking and then washed 3 times with 200 μL 1× Wash Buffer. NF-κB p65, p50, p52, RelB, or c-Rel subunits bound to the plate were detected with 100 μL of the primary antibody (diluted 1:1000 in 1× Antibody Buffer) specific for that subunit. The plate was incubated for 1 hour at room temperature and then washed 3 times with 200 μL 1× Wash Buffer. Next, 100 μL of a HRP conjugated goat anti-rabbit antibody (diluted 1:1,000 in 1× Antibody Buffer) was added to each well. The plate was incubated for 1 hour at room temperature and then washed 4 times with 200 μL 1× Wash Buffer. 100 μL of room temperature Developing Solution was added to each well. The reaction was allowed to develop for 2-10 minutes until a medium dark blue color developed (depending on the subunit activity in the lot of extract or lot of recombinant protein used) and then the reaction was stopped with 100 μL Stop Solution yielding a yellow color. Absorbance was recorded using a Becton-Dickinson DTX 880 Multimode Detector at 450 nm with a reference wavelength subtracted at 620 nm.
Procedure for c-Rel: as §2
Procedure for p50: as §2

For `COc1nc2ccccc2cc1C(=O)NC1=CC(=O)C2OC2C1=O` (racemic) [Example 35, (±)-N-(2,5-dioxo-7-oxabicyclo[4.1.0]hept-3-en-3-yl)-2-methoxyquinoline-3-carboxamide], the EC50 was found to be 3.1 µM in the experiment with NF-κB [1], 5.3 µM in the experiment on NF-κB [2] (setting [4]) and 0.44 µM in experiment [3] (setting [5]). For the same compound, the IC50 (as a rule, the concentration at which inhibition is half-maximal) at p65 (RelA) stood at 50 µM; on p50 it was 148 µM; on p52, 81 µM.

Take `COc1c(C(=O)NC2=CC(=O)C3OC3C2=O)ccc2cccnc12` (racemic) [Example 32, (±)-N-(2,5-diose-7-oxabicyclo[4.1.0]hept-3-en-3-yl)-8-methoxyquinoline-7-carboxamide]: the EC50 was 3.4 µM in the experiment on NF-κB [1], 3 µM in the experiment on NF-κB [2] (setting [4]) and 0.24 µM in experiment [3] (setting [5]). In addition, the IC50 was 30 µM at p65 (RelA), greater than 514 µM on p50 and greater than 514 µM at p52.

Turning to `COc1cc2ccccc2nc1C(=O)NC1=CC(=O)C2OC2C1O` (racemic) [Example 31, (±)-N-(2-hydroxy-5-oxo-7-oxabicyclo[4.1.0]hept-3-en-3-yl)-3-methoxyquinoline-2-carboxamide], the EC50 came out at 3.9 µM in the experiment with NF-κB [1], 5.6 µM in the experiment with NF-κB [2] (setting [4]) and 1 µM in experiment [3] (setting [5]). Besides, the IC50 at p65 (RelA) came to 38 µM; on p50 it was 28 µM; on p52, 21 µM.

For the compound `Cc1ncc(C(=O)NC2=CC(=O)C3OC3C2O)c(O)n1` (racemic) [Example 24, (±)-4-hydroxy-2-methyl-pyrimidine-5-carboxylic acid (2-hydroxy-5-oxo-7-oxa-bicyclo[4.1.0]hept-3-en-3-yl)-amide], the EC50 in the experiment on NF-κB [1] is greater than 48 µM; with NF-κB [2] (setting [4]), greater than 48 µM; in experiment [3] (setting [5]), 27.1 µM. This compound also yielded an IC50 at p65 (RelA) of 2.3 µM.

Turning to `COc1cccnc1C(=O)NC1=CC(=O)C2OC2C1O` (racemic) [Example 22, (±)-3-methoxy-pyridine-2-carboxylic acid (2-hydroxy-5-oxo-7-oxa-bicyclo[4.1.0]hept-3-en-3-yl)-amide trifluoroacetate], the EC50 (in the experiment with NF-κB [1] (trifluoroacetate); in experiment [3] (setting [6])) was greater than 34 µM each time. On p65 (RelA), this compound came in with an IC50 of 13.2 µM.

Take `O=C(NC1=CC(=O)C2OC2C1O)c1ncccc1O.O=C(O)C(F)(F)F` (racemic) [Example 13, (±)-3-hydroxy-N-(2-hydroxy-5-oxo-7-oxabicyclo[4.1.0]hept-3-en-3-yl)picolinamide trifluoroacetate]: the EC50 in the experiment with NF-κB [1] (trifluoroacetate) was found to be 9.2 µM; in experiment [3] (setting [6]) it was 1.4 µM. Moreover, on p52 (at 5 uM), the “p52 binding % inhibit. at 5 uM” value worked out at 0%. Moreover, the “RelB binding % inhibit. at 5 uM” value at RelB is reported as 10%. Further, the “c-Rel binding % inhibit. at 5 uM” value on c-Rel amounted to 15%.

Take `COc1c(C(=O)NC2=CC(=O)C3OC3C2O)ccc2cccnc12` (racemic) [Example 33, (±)-N-(2-hydroxy-5-oxo-7-oxabicyclo[4.1.0]hept-3-en-3-yl)-8-methoxyquinoline-7-carboxamide trifluoroacetate]: the EC50 in the experiment on NF-κB [1] (trifluoroacetate) stood at 0.53 µM; in the experiment on NF-κB [2] (HEK293 cells, trifluoroacetate) it was 2 µM; in experiment [3] (setting [6]), 0.26 µM. Further, the IC50 on p65 (RelA) was 4.8 µM; on p50, greater than 378 µM; on p52, greater than 378 µM.

As to `COc1ncccc1C(=O)NC1=CC(=O)C2OC2C1=O` (racemic) [Example 30, (±)-N-(2,5-Dioxo-7-oxa-bicyclo[4.1.0]hept-3-en-3-yl)-2-methoxy-nicotinamide], the EC50 was 2.7 µM with NF-κB [1], 4.3 µM in the experiment with NF-κB [2] (setting [4]) and 0.76 µM in experiment [3] (setting [5]). For the same compound, the IC50 on p65 (RelA) is 36 µM; at p50 it was greater than 608 µM; on p52, greater than 608 µM.

Regarding `O=C(NC1=CC(=O)C2OC2C1O)c1ccc(C(F)(F)F)nc1O` (racemic) [Example 23, (±)-2-hydroxy-N-(2-hydroxy-5-oxo-7-oxa-bicyclo[4.1.0]hept-3-en-3-yl)-6-trifluoromethyl-nicotinamide], the values for the EC50 (in the experiment on NF-κB [1]; in the experiment on NF-κB [2] (setting [4]); in experiment [3] (setting [5])) were greater than 40 µM, greater than 40 µM and 24.8 µM, respectively. Also, the IC50 at p65 (RelA) was found to be 6.4 µM.

Take `O=C(NC1=CC(=O)C2OC2C1O)c1nc(Cl)c2ccccc2c1O` (racemic) [Example 27, (±)-1-chloro-4-hydroxy-isoquinoline-3-carboxylic acid (2-hydroxy-5-oxo-7-oxa-bicyclo[4.1.0]hept-3-en-3-yl)-amide]: the values for the EC50 (in the experiment with NF-κB [1]; with NF-κB [2] (setting [4]); in experiment [3] (setting [5])) were 9.7 µM, 6.7 µM and 0.71 µM, respectively. For the same compound, the IC50 on p65 (RelA) amounted to 30 µM.

For `O=C(NC1=CC(=O)C2OC2C1=O)c1ccncc1O` (racemic) [Example 34, (±)-N-(2,5-dioxo-7-oxabicyclo[4.1.0]hept-3-en-3-yl)-3-hydroxyisonicotinamide], the EC50 was greater than 51 µM in the experiment on NF-κB [1], 39 µM in the experiment with NF-κB [2] (setting [4]) and 42 µM in experiment [3] (setting [5]). Also, the values for the IC50 at p65 (RelA), at p50 and on p52 were 12 µM, 90 µM and 96 µM, respectively.

(Values after patent US8629164B2, “Inhibitors of NF-κB” (Profectus Biosciences, Inc., priority 2009, dated 2014).)
